One may read the IC50 as the concentration that inhibits the measured activity by half.

Like-named read-outs stand apart in the source and are kept apart here.

The source of these data is paper PMC11206987, “Investigation of the Efficacy of Benzylidene-3-methyl-2-thioxothiazolidin-4-one Analogs with Antioxidant Activities on the Inhibition of Mushroom and Mammal Tyrosinases” (Molecules, 2024).

In series [1] the test system is mushroom tyrosinase. Description: Mushroom tyrosinase inhibition assay (dopachrome, 475 nm). Particulars: for IC50: mushroom tyrosinase. The class given is biochemical. How it is done: The ability of the BMTTZD analogs to inhibit mushroom tyrosinase was evaluated in the presence of L-dopa and L-tyrosine as previously described.
The target of series [2] is mushroom tyrosinase (Agaricus bisporus, UniProt C7FF04). Description: Kinetic study of mushroom tyrosinase inhibition (Lineweaver–Burk and Dixon plots). The series is classed as biochemical. Particulars: substrate L-dopa 0.5–16 mM. The method, then:
The initial rate of dopachrome generation was examined at various BMTTZD analog concentrations (0, 1.5, 3, and 6 µM for analog 1; 0, 2, 4, and 8 µM for analogs 2 and 5; and 0, 0.05, 0.1, and 0.2 µM for 3) with 0.5, 1, 2, 4, 8, or 16 mM L-dopa as substrates using mushroom tyrosinase. Plotting the reciprocal of the dopachrome formation rate against the inverse of the L-dopa concentration produced Lineweaver–Burk plots (Figure 2). Each Lineweaver–Burk plot created four straight lines with different slopes. For analogs 1 and 3, the four straight lines met at a point on the y-axis, whereas for analogs 2 and 5, the four straight lines converged at a point in the second quadrant.
The Dixon plots produced lines that met in the second quadrant. The x-coordinate of the convergence position represents the inhibition constant (Ki) of the ligand.
Lineweaver–Burk (L-B) plots were acquired for the kinetic analysis of analogs against mushroom tyrosinase as previously described. In brief, 10 µL of a solution of DMSO and BMTTZD analogs 1–3 or 5 (final concentrations: 0, 1.5, 3, and 6 µM for analog 1; 0, 2, 4, and 8 µM for analogs 2 and 5; and 0, 0.05, 0.1, and 0.2 µM for analog 3) in each well of a 96-well plate was mixed with 20 µL of aqueous mushroom tyrosinase solution (200 units/mL) and 170 µL of an aqueous substrate mixture (various concentrations of L-dopa (final concentrations: 16, 8, 4, 2, 1 and 0.5 mM) and 17.2 mM sodium phosphate buffer (pH 6.5)). During incubation (15 min at 37 °C), the increase in the well absorbance (ΔOD475/min) was calculated at 1 min intervals utilizing a VersaMax® reader.

A further series relates to B16F10 cells. Description: Cell cytotoxicity test (EZ-Cytox). The class given is cell-based, murine. Particulars: 2.5–20 µM, 48 and 72 h. How it is done:
Because analogs 1–3 and 5 exerted potent mushroom tyrosinase inhibitory activities, their effects on anti-melanogenic and cellular tyrosinase activities were evaluated in B16F10 murine cells. Prior to examining their cellular activity, their cell viabilities were investigated. Cell viability was evaluated at 48 and 72 h after treatment with five different concentrations of analogs.
The effect on B16F10 cytotoxicity was assessed following a previously described method. Cells (1 × 10^4 cells/well of a 96-well plate) were cultivated for 24 h with 5% CO2 at 37 °C. The cells were exposed to the BMTTZD analogs (test concentrations: 20, 10, 5, 2.5, and 0 µM) and cultivated with 5% CO2 at 37 °C for 72 h. An EZ-Cytox solution (10 µL; EZ-500, DoGenBio, Seoul, Republic of Korea) was exposed to each well, and the plate was cultivated for 2 h. Cell viability was calculated from the well absorbance measured at 450 nm utilizing a reader (VersaMax®).

Series [3] is described as follows: DPPH radical scavenging activity assay. Particulars: 500 µM. The method, then: First, the ability of BMTTZD analogs 1–8 to scavenge DPPH radicals was examined using L-ascorbic acid (vitamin C; positive control). All samples were tested at 500 µM.
The ability of the BMTTZD analogs to scavenge DPPH radicals was evaluated as previously reported. To each well of a 96-well plate containing analogs 1–8 (5 mM in […]; 20 µL) was added a DPPH solution (0.2 mM in methanol; 180 µL). The mixture was kept in a place without light for 30 min at 25°C to generate DPPH radicals. The well absorbance at 517 nm was measured utilizing a VersaMax® reader. The ability of the analogs to remove DPPH radicals was compared to that of vitamin C.

Series [4] can be described thus: ABTS+ radical scavenging activity assay. The note with it: 100 µM. The method, then: Second, the ability of BMTTZD analogs to scavenge ABTS^+ radicals was examined. ABTS^+ radicals were obtained via the oxidation of ABTS using potassium persulfate. All samples (Trolox (positive control) and 1–8) were tested at 100 µM.
The ability of the BMTTZD analogs to scavenge ABTS^+ radicals was assessed as previously described, with minor modifications. To a 50 mL tube were added 20 mL aqueous K2S2O8 solution (2.45 mM) and 20 mL aqueous ABTS solution (7 mM). The combined mixture was placed at 22 °C in a place without light for 17 h to generate the ABTS^+ radicals. For adequate absorbance control (0.70 ± 0.02 at 734 nm), methanol was added to the combined mixture. Test compounds (Trolox and analogs 1–8; 10 µL in 10% DMSO/90% EtOH [v/v] solution) were mixed with 90 µL ABTS^+ radical solution. After storage in a place without light for 2 min, the well absorbance at 734 nm was acquired for 10 min every 1 min by using a microplate reader (VersaMax®). All test compounds were tested at 100 µM. The activity of the analogs was compared to that of Trolox.

Series [5] can be described thus: In vitro ROS scavenging activity assay (SIN-1, DCFH-DA/esterase). Particulars: test sample 40 µM; SIN-1 10 µM. The method, then:
Third, the ability of analogs 1–8 to scavenge in vitro ROS was determined. Esterase was mixed with 2′,7′-dichlorodihydrofluorescein diacetate (DCFH-DA) to produce 2′,7′-dichlorodihydrofluorescein (DCFH). 3-Morpholinosydnonimine (SIN-1) generates ROS that react with DCFH, resulting in the formation of DCF (2′,7′-dichlorofluorescein). Therefore, the ability of analogs 1–8 to scavenge ROS was calculated by measuring the fluorescence of DCF with 10 µM SIN-1 and 40 µM test samples (Trolox (positive control) and analogs 1–8). […] The ability of analogs to scavenge ROS was examined as previously described. To a 15 mL tube were added DCFH-DA solution (1.25 mM; 50 µL), phosphate buffer (50 mM, 4.9 mL), and esterase (600 units/mL; 50 µL). The esterase–DCFH-DA solution was left in a dark place for 30 min. A 10 µL SIN-1 solution was added to each well of a black 96-well plate and mixed with phosphate buffer (180 µL) and Trolox (10 µL) or analogs 1–8 (10 µL). SIN-1, Trolox, and analogs 1–8 were treated at 10, 40, and 40 µM, respectively. After 5 min, 50 µL of the esterase–DCFH-DA solution was added to each well. The well fluorescence of DCF was acquired at 535 nm utilizing a microplate reader (Berthold Advances GmbH & Co., Bad Wildbad, Germany) using a 485 nm excitation wavelength. Trolox was used to compare ROS scavenging activity.

Sequence of mushroom tyrosinase (Agaricus bisporus, UniProt C7FF04) (C7FF04 1-392): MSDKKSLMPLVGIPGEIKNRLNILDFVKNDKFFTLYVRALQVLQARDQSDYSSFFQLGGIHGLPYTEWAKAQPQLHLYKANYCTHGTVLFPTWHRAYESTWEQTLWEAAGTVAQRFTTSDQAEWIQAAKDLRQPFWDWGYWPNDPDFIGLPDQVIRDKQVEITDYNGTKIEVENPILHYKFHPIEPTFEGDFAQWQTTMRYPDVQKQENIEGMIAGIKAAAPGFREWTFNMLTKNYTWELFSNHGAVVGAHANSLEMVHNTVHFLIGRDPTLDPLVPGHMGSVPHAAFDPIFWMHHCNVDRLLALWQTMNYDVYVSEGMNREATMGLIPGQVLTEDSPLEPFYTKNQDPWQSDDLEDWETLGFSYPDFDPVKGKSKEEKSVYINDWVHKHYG

For the compound `CN1C(=O)/C(=C/c2ccc(O)c(O)c2)SC1=S` [Analog 2, (Z)-5-(3,4-Dihydroxybenzylidene)-3-methyl-2-thioxothiazolidin-4-one], the “tyrosinase inhibition, fold stronger than kojic acid” value with mushroom tyrosinase [1] (substrate L-dopa) is listed as “four times stronger than kojic acid”. In addition, the IC50 was determined as 6.18 ± 0.17 µM at mushroom tyrosinase [1] (substrate L-dopa, read-out: IC50 (Mean ± SEM, µM) L-Dopa) and 3.77 ± 0.47 µM on mushroom tyrosinase [1] (substrate L-tyrosine, read-out: IC50 (Mean ± SEM, µM) L-Tyrosine). Moreover, at mushroom tyrosinase [2], the “type of tyrosinase inhibition (Lineweaver–Burk plots)” value was “mixed-type inhibitors”. For the same compound, the “cytotoxicity (cell viability)” value in the series with B16F10 cells is listed as “significant cytotoxicity in a concentration-dependent manner, even at 2.5 µM”. Moreover, the “DPPH radical scavenging activity” value in series [3] came to 93%. Also, the “ABTS^+ radical scavenging activity” value in series [4] is reported as 92%.

In the case of `Cc1c(C)c2c(c(C)c1O)CCC(C)(C(=O)O)O2` (stereo not drawn) [Trolox, reference compound], in series [4], the “ABTS^+ radical scavenging activity” value is recorded as 95%. In addition, the “effect on SIN-1-induced ROS levels” value in series [5] is “significantly decreased the SIN-1-induced ROS contents”.
